Source: US20250114369A1, “COMPOUNDS AND METHODS FOR TREATMENT OF VIRAL INFECTIONS” (Gilead Sciences, Inc., priority 2023, published 2025)

What was measured:
[1] = system: Caco-2 cells (clone C2BBel); experiment: CACO-2 permeability; type: in vitro ADME; settings: donor pH 6.5, receiver pH 7.4; for DM Caco2 A to B: forward (A to B); for DM Caco2 B to A: reverse (B to A)
Protocol: Pre-plated Caco-2 cells (clone C2BBel) were obtained from Sigma-Aldrich, Inc. (Atlanta, GA). Cell monolayers were grown to confluence on collagen-coated, microporous, polycarbonate membranes in 24-well transwell plates for 21 days. The permeability assay buffer in donor wells was Hanks' balanced salt solution (HBSS) containing 10 mM HEPES and 15 mM glucose at a pH of 6.5 containing 200 μM BNPP. The receiver wells used HBSS buffer containing 10 mM HEPES and 15 mM glucose at a pH of 7.4 and supplemented with 1% BSA. After an initial equilibration with transport buffer, TEER values were read to test membrane integrity. The experiment was started by the addition of buffers containing test compounds, 200 μl and 1000 μl in the apical and basolateral chamber, respectively. At 0- and 2-hour post dose, 10 μL was sampled from donor compartment and was immediately diluted in 190 μL of 20% methanol. At 1 and 2 hours post dose, 100 μl of solution was taken from the receiver compartments and was immediately diluted in 100 μl of 20% methanol. Removed buffer was replaced with fresh buffer and a correction was applied to all calculations for the removed material. Each compound was tested in 2 separate replicate wells for each condition. All samples were then extracted with 400 μl 100% acetonitrile with internal standard to precipitate protein. Cells were dosed on the apical or basolateral side to determine forward (A to B) and reverse (B to A) permeability. To test for non-specific binding and compound instability, the total amount of drug was quantitated at the end of the experiment and compared to the material present in the original dosing solution as a percent recovery. Formation of the parent compound (GS-441524; Reference Compound A) was monitored in assay wells dosed with the prodrug. Samples were analyzed by LC-MS/MS.

[2] = type: in vitro ADME; settings: 2 μM
Protocol: Duplicate aliquots of plasma were warmed to 37° C. and the metabolic reactions initiated by the addition of test compound (6 μL of 0.1 mM DMSO stock) or plasma stability standard (GS-7340) to obtain a final substrate concentration of 2 μM. At 0.05, 0.5, 1, 2, 3 and 4 hr, 25 μL aliquots of the reaction mixture were transferred to plates containing 225 μl of IS/Q quenching solution. After quenching, the plates were centrifuged at 3000×g for 30 minutes, and 150 μL supernatant was diluted with 150 μL water. Aliquots (10 μL) of the diluted supernatant were analyzed on a Thermo Q-Exactive mass spectrometer as described below. Quantification of test compounds and controls was performed by analyte/internal standard peak area ratio (PAR) values measured on a Thermo Q-Exactive mass spectrometer coupled to a Dionex UltiMate 3000 HPLC with a Leap Technologies HTC PAL autosampler. The column used was a Thermo Hypersil GOLD (1.9 μm particle size, 2.1×50 mm). Mobile phase A consisted of […] formic acid in water. Mobile phase B consisted of 0.1% (v/v) formic acid in acetonitrile. Elution of analytes was achieved by a series of linear gradients of acetonitrile in water containing 0.1% (v/v) formic acid. The mass spectrometer was calibrated on a weekly basis and mass tolerance of 5 ppm was used.

[3] = system: SARS Coronavirus 2 recombinant with NanoLuc (SARS-CoV2-NLuc); experiment: organism not typed; type: cell-based; settings: 48 h
[4] = system: Respiratory syncytial virus recombinant with luciferase (RSV-Luc5); experiment: microbe, parasite or virus in culture; type: cell-based; settings: human respiratory syncytial virus, NHBE, 72 h, read-out: RSV NHBE EC50 (nM)
in vitro [5] = type: in vitro ADME; settings: human, s9, pH 7.4
Protocol: Duplicate aliquots of test compound or positive control substrate (GS-7340) were added to PMSF-free Intestinal S9 fractions diluted with 100 mM phosphate buffered saline, pH 7.4, to obtain a protein concentration of 1.0 mg/mL. The S9 metabolic reactions were initiated by the addition of the substrates to the S9 reaction mixture to a final concentration of 2 μM. At 0, 10, 20, 30, 60 and 120 min, 25 μL aliquots of the reaction mixture were transferred to plates containing 225 μl of IS/Q solution. After quenching, the plates were centrifuged at 3000×g for 30 minutes, and 150 μL aliquots of each supernatant were diluted with 150 μL water. Aliquots (10 μL) of the diluted supernatant were analyzed on a Thermo Q-Exactive mass spectrometer as described below. Quantification of test compounds and controls was performed by analyte/internal standard peak area ratio (PAR) values measured on a Thermo Q-Exactive mass spectrometer coupled to a Dionex UltiMate 3000 HPLC with a Leap Technologies HTC PAL autosampler. The column used was a Thermo Hypersil GOLD (1.9 μm particle size, 2.1×50 mm). Mobile phase A consisted of […] formic acid in water. Mobile phase B consisted of 0.1% (v/v) formic acid in acetonitrile. Elution of analytes was achieved by a series of linear gradients of acetonitrile in water containing 0.1% (v/v) formic acid. The mass spectrometer was calibrated on a weekly basis and mass tolerance of 5 ppm was used.

in vitro [6] = type: cell-based; settings: human
Protocol: Cytotoxicity of the compounds was determined in uninfected cells using the cell viability reagent in a similar fashion as described before for other cell types (Cihlar et al., Antimicrob Agents Chemother. 2008, 52(2):655-65). HEp-2 (1.5×10^3 cells/well) and MT-4 (2×10^3 cells/well) cells were plated in 384-well plates and incubated with the appropriate medium containing 3-fold serially diluted compound ranging from 15 nM to 100,000 nM. Cells were cultured for 4-5 days at 37° C. Following the incubation, the cells were allowed to equilibrate to 25° C., and cell viability was determined by adding Cell-Titer Glo viability reagent. The mixture was incubated for 10 min, and the luminescence signal was quantified using an Envision plate reader. Untreated cell and cells treated at 2 μM puromycin (Sigma, St. Louis, MO) serve as […] cell viability control, respectively. The percent of cell viability was calculated for each tested compound concentration relative to the 0% and 100% controls and the CC50 value was determined by non-linear regression as a compound concentration reducing the cell viability by […].
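For CC50 in this document: uninfected MT-4 cells over 4-5 days by CellTiter-Glo.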

With `N#C[C@@]1(c2ccc3c(N)ncnn23)O[C@H](COC(=O)N2C(=O)OC[C@@H]2Cc2ccccc2)[C@@H](O)[C@H]1O` [Compound 4, [(2R,3S,4R,5R)-5-(4-aminopyrrolo[2,1-f][1,2,4]triazin-7-yl)-5-cyano-3,4-dihydroxy-tetrahydrofuran-2-yl]methyl (4S)-4-benzyl-2-oxo-oxazolidine-3-carboxylate] the “DM Caco2 A to B” value [1] was 0.12, the “DM Caco2 B to A” value [1] was 0.94 and the “STA Human Plasma 37” value [2] was 253.23. The EC50 [3] was > 50 µM, the EC50 [4] was > 50000 nM and the half-life at 2 μM (in vitro [5]) was ≥ 13.2 h. For the same compound, the CC50 (in vitro [6]) was > 50 µM.

For `CC(C)[C@H](NC(=O)OC[C@H]1O[C@@](C#N)(c2ccc3c(N)ncnn23)[C@H](O)[C@@H]1O)C(=O)O` [Compound 6, ((((2R,3S,4R,5R)-5-(4-aminopyrrolo[2,1-f][1,2,4]triazin-7-yl)-5-cyano-3,4-dihydroxytetrahydrofuran-2-yl)methoxy)carbonyl)-L-valine], the “DM Caco2 A to B” value [1] was 0.05, the “DM Caco2 B to A” value [1] was 0.07 and the “STA Human Plasma 37” value [2] was 1584. The EC50 [3] was > 50 µM, the EC50 [4] was > 50000 nM and the half-life at 2 μM (in vitro [5]) was ≥ 13.2 h. For the same compound, the CC50 (in vitro [6]) was > 50 µM.

With `N#C[C@@]1(c2ccc3c(N)ncnn23)O[C@H](COC(=O)N2CCS(=O)(=O)CC2)[C@@H](O)[C@H]1O` [Compound 11, [(2R,3S,4R,5R)-5-(4-aminopyrrolo[2,1-f][1,2,4]triazin-7-yl)-5-cyano-3,4-dihydroxy-tetrahydrofuran-2-yl]methyl 1,1-dioxo-1,4-thiazinane-4-carboxylate] the “DM Caco2 A to B” value [1] was 0.08, the “DM Caco2 B to A” value [1] was 0.11 and the “STA Human Plasma 37” value [2] was 1584. For the same compound, the EC50 [3] was > 50 µM, the EC50 [4] was > 50000 nM and the half-life at 2 μM (in vitro [5]) was 13 h. For the same compound, the CC50 (in vitro [6]) was > 50 µM.

For `N#C[C@@]1(c2ccc3c(N)ncnn23)O[C@H](COC(=O)N2CCCO2)[C@@H](O)[C@H]1O` [Compound 12, [(2R,3S,4R,5R)-5-(4-aminopyrrolo[2,1-f][1,2,4]triazin-7-yl)-5-cyano-3,4-dihydroxy-tetrahydrofuran-2-yl]methyl isoxazolidine-2-carboxylate], the “DM Caco2 A to B” value [1] was 0.08, the “DM Caco2 B to A” value [1] was 0.36 and the “STA Human Plasma 37” value [2] was 938.47. For the same compound, the EC50 [3] was > 50 µM, the EC50 [4] was 35300 nM and the half-life at 2 μM (in vitro [5]) was 1.42 h. The CC50 (in vitro [6]) was > 50 µM.

With `CCCSC(=O)OC[C@H]1O[C@@](C#N)(c2ccc3c(N)ncnn23)[C@H](O)[C@@H]1O` [Compound 14, [(2R,3S,4R,5R)-5-(4-aminopyrrolo[2,1-f][1,2,4]triazin-7-yl)-5-cyano-3,4-dihydroxy-tetrahydrofuran-2-yl]methyl propylsulfanylformate] the “DM Caco2 A to B” value [1] was 2.06, the “DM Caco2 B to A” value [1] was 9.1 and the “STA Human Plasma 37” value [2] was 495.99. The EC50 [3] was 11.7 µM, the EC50 [4] was 2620 nM and the half-life at 2 μM (in vitro [5]) was 0.0853 h. For the same compound, the CC50 (in vitro [6]) was > 50 µM.

In the case of `CCSC(=O)OC[C@H]1O[C@@](C#N)(c2ccc3c(N)ncnn23)[C@H](O)[C@@H]1O` [Compound 15, [(2R,3S,4R,5R)-5-(4-aminopyrrolo[2,1-f][1,2,4]triazin-7-yl)-5-cyano-3,4-dihydroxy-tetrahydrofuran-2-yl]methyl ethylsulfanylformate], the “DM Caco2 A to B” value [1] is reported as 1.51, the “DM Caco2 B to A” value [1] is reported as 7.08 and the “STA Human Plasma 37” value [2] is reported as 451.78. The EC50 [3] was 19.7 µM, the EC50 [4] was 5650 nM and the half-life at 2 μM (in vitro [5]) was 0.273 h. The CC50 (in vitro [6]) was > 50 µM.

With `CC(C)(C)SC(=O)OC[C@H]1O[C@@](C#N)(c2ccc3c(N)ncnn23)[C@H](O)[C@@H]1O` [Compound 17, [(2R,3S,4R,5R)-5-(4-aminopyrrolo[2,1-f][1,2,4]triazin-7-yl)-5-cyano-3,4-dihydroxy-tetrahydrofuran-2-yl]methyl tert-butylsulfanylformate] the “DM Caco2 A to B” value [1] was 3.05, the “DM Caco2 B to A” value [1] was 15.63 and the “STA Human Plasma 37” value [2] was 1343.5. The EC50 [3] was ≥ 50 µM, the EC50 [4] was 8110 nM and the half-life at 2 μM (in vitro [5]) was 0.741 h. For the same compound, the CC50 (in vitro [6]) was 49.8 µM.
